19 compounds from patent US20250281424A1 (New York Blood Center, Inc, priority 2020, published 2025) can be followed below.

This test addresses T1, human PF4 (Homo sapiens, UniProt P02776).
T1 construct: PF4 is a 70 amino acid, lysine-rich 7.8 kDa platelet-specific protein; made in house; host or cells: Escherichia coli BL21DE3 pLysS (pT7-7) and/or Drosophila S2 cells
T1 sequence (P02776 32-101): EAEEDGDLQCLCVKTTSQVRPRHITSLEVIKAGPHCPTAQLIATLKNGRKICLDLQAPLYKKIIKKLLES
Briefly: Inhibition of PF4 tetramer formation (BS3 cross-linking, SDS-PAGE). The note with it: for inhibition at 1 µM / inhibition at 3 µM / inhibition at 5 µM / inhibition at 10 µM: read-out: % inhibition of PF4 tetramer formation at single concentration of inhibitor; for inhibition at 5 µM: 5 μM inhibitor; for inhibition at 10 µM: 10 μM inhibitor (column A); for IC50: read-out: IC50 of PF4 tetramer formation inhibition. Type of test: biochemical. The gist of the method: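 Recombinant human wild-type PF4 (E. coli-expressed, heparin-purified), 10 μg/ml in PBS, incubated with compound 15 min at 37° C or 60 min at room temperature, then cross-linked with 0.2 mM BS3 for 30 min at room temperature. Reducing 12% SDS-PAGE; bands quantified as % tetramer, trimer, dimer, monomer versus compound-free control.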

As a reminder, the IC50 is the concentration at which inhibition is half-maximal.

Regarding `COC(=O)CCC(=O)C1C(=O)c2ccc(C(=O)c3ccc4c(c3)C(=O)C(C(=O)CCC(=O)OC)C4=O)cc2C1=O` (centres unmarked) [Example 230, methyl 4-{5-[2-(4-methoxy-4-oxobutanoyl)-1,3-dioxo-2,3-dihydro-1H-indene-5-carbonyl]-1,3-dioxo-2,3-dihydro-1H-inden-2-yl}-4-oxobutanoate], the inhibition at 1 µM (1 μM inhibitor) came out at 1%. Also, the inhibition at 3 µM (3 μM inhibitor (column A)) came out at 24%.

Regarding `COC1CCC(C(=O)C2C(=O)c3ccc(S(=O)(=O)c4ccc5c(c4)C(=O)C(C(=O)C4CCC(OC)CC4)C5=O)cc3C2=O)CC1` (centres unmarked) [Example 151, 2-(4-methoxycyclohexanecarbonyl)-5-{[2-(4-methoxycyclohexanecarbonyl)-1,3-dioxo-2,3-dihydro-1H-inden-5-yl]sulfonyl}-2,3-dihydro-1H-indene-1,3-dione], the inhibition at 5 µM came out at 89%, the inhibition at 10 µM was 100% and the IC50 is about 6 µM.

In the case of `CCOC(=O)CC(=O)C1C(=O)c2ccc(S(=O)(=O)c3ccc4c(c3)C(=O)C(C(=O)CC(=O)OCC)C4=O)cc2C1=O` (centres unmarked) [Example 403, ethyl 3-(5-{[2-(3-ethoxy-3-oxopropanoyl)-1,3-dioxo-2,3-dihydro-1H-inden-5-yl]sulfonyl}-1,3-dioxo-2,3-dihydro-1H-inden-2-yl)-3-oxopropanoate], the inhibition at 1 µM (1 μM inhibitor) stood at 22%. Under “3 μM inhibitor (column A)”, the inhibition at 3 µM stood at 23%.

Turning to `CN1CCC(C(=O)C2C(=O)c3ccc(C(=O)c4ccc5c(c4)C(=O)C(C(=O)C4CCN(C)CC4)C5=O)cc3C2=O)CC1` (centres unmarked) [Example 266, 2-(1-methylpiperidine-4-carbonyl)-5-[2-(1-methylpiperidine-4-carbonyl)-1,3-dioxo-2,3-dihydro-1H-indene-5-carbonyl]-2,3-dihydro-1H-indene-1,3-dione], the inhibition at 3 µM (3 μM inhibitor (column A)) amounted to 25%.

`COCCOCCOCCNC(=O)C1C(=O)c2ccc(C(=O)c3ccc4c(c3)C(=O)C(C(=O)NCCOCCOCCOC)C4=O)cc2C1=O` (centres unmarked) [Example 388, N-{2-[2-(2-methoxyethoxy)ethoxy]ethyl}-5-[2-({2-[2-(2-methoxyethoxy)ethoxy]ethyl}carbamoyl)-1,3-dioxo-2,3-dihydro-1H-indene-5-carbonyl]-1,3-dioxo-2,3-dihydro-1H-indene-2-carboxamide]: the inhibition at 1 µM (1 μM inhibitor) was 23%. For the setting “3 μM inhibitor (column A)”, the inhibition at 3 µM was 31%.

As to `O=C(c1ccc2c(c1)C(=O)C(C(=O)C1CCC1)C2=O)c1ccc2c(c1)C(=O)C(C(=O)C1CCC1)C2=O` (centres unmarked) [Example 299, 2-cyclobutanecarbonyl-5-(2-cyclobutanecarbonyl-1,3-dioxo-2,3-dihydro-1H-indene-5-carbonyl)-2,3-dihydro-1H-indene-1,3-dione], the inhibition at 1 µM (1 μM inhibitor) was 32%. The inhibition at 3 µM (3 μM inhibitor (column A)) stood at 56%.

On to `CC(C(=O)C1C(=O)c2ccc(C(=O)c3ccc4c(c3)C(=O)C(C(=O)C(C)c3ccc(F)cc3)C4=O)cc2C1=O)c1ccc(F)cc1` (centres unmarked) [Example 242, 2-[2-(4-fluorophenyl)propanoyl]-5-{2-[2-(4-fluorophenyl)propanoyl]-1,3-dioxo-2,3-dihydro-1H-indene-5-carbonyl}-2,3-dihydro-1H-indene-1,3-dione], for which the inhibition at 1 µM (1 μM inhibitor) amounted to 13%. Besides, where the note is “3 μM inhibitor (column A)”, the inhibition at 3 µM came to 31%.

For `C[C@H](NC(=O)OC(C)(C)C)C(=O)C1C(=O)c2ccc(S(=O)(=O)c3ccc4c(c3)C(=O)C(C(=O)[C@H](C)NC(=O)OC(C)(C)C)C4=O)cc2C1=O` (stereo partly drawn) [Example 180, tert-butyl N-[(2S)-1-[5-({2-[(2S)-2-{[(tert-butoxy)carbonyl]amino}propanoyl]-1,3-dioxo-2,3-dihydro-1H-inden-5-yl}sulfonyl)-1,3-dioxo-2,3-dihydro-1H-inden-2-yl]-1-oxopropan-2-yl]carbamate], the inhibition at 5 µM was 73%, the inhibition at 10 µM turned out to be 90% and the IC50 is about 6 µM.

For `COC(=O)[C@@H]1C[C@H]1C(=O)C1C(=O)c2ccc(S(=O)(=O)c3ccc4c(c3)C(=O)C(C(=O)[C@@H]3C[C@H]3C(=O)OC)C4=O)cc2C1=O` (stereo partly drawn) [Example 218, methyl (1R,2R)-2-[5-({2-[(1R,2R)-2-(methoxycarbonyl)cyclopropanecarbonyl]-1,3-dioxo-2,3-dihydro-1H-inden-5-yl}sulfonyl)-1,3-dioxo-2,3-dihydro-1H-indene-2-carbonyl]cyclopropane-1-carboxylate], the inhibition at 5 µM came out at 67%, the inhibition at 10 µM worked out at 92% and the IC50 is 4 µM.

With `CO[C@@H](C)C(=O)C1C(=O)c2ccc(S(=O)(=O)c3ccc4c(c3)C(=O)C(C(=O)[C@@H](C)OC)C4=O)cc2C1=O` (stereo partly drawn) [Example 237, 2-[(2R)-2-methoxypropanoyl]-5-({2-[(2S)-2-methoxypropanoyl]-1,3-dioxo-2,3-dihydro-1H-inden-5-yl}sulfonyl)-2,3-dihydro-1H-indene-1,3-dione], the inhibition at 1 µM (1 μM inhibitor) came out at 30%. In addition, the inhibition at 3 µM (3 μM inhibitor (column A)) is 37%.

For `CC(=O)NCC(=O)C1C(=O)c2ccc(Oc3ccc4c(c3)C(=O)C(C(=O)CNC(C)=O)C4=O)cc2C1=O` (centres unmarked) [Example 246, N-[2-(5-{[2-(2-acetamidoacetyl)-1,3-dioxo-2,3-dihydro-1H-inden-5-yl]oxy}-1,3-dioxo-2,3-dihydro-1H-inden-2-yl)-2-oxoethyl]acetamide], the half-inhibitory concentration (IC50) is 3 µM. Besides, the “% inhibition of PF4 tetramer formation at single concentration of inhibitor” value (1 μM inhibitor, 1 µM) is listed as 12%. Further, the “% inhibition of PF4 tetramer formation at single concentration of inhibitor” value (3 μM inhibitor (column A), 3 µM) is reported as 30%.

As to `CS(=O)(=O)N1CCC(NC(=O)C2C(=O)c3ccc(Oc4ccc5c(c4)C(=O)C(C(=O)NC4CCN(S(C)(=O)=O)CC4)C5=O)cc3C2=O)CC1` (centres unmarked) [Example 369, N-(1-methanesulfonylpiperidin-4-yl)-5-({2-[(1-methanesulfonylpiperidin-4-yl)carbamoyl]-1,3-dioxo-2,3-dihydro-1H-inden-5-yl}oxy)-1,3-dioxo-2,3-dihydro-1H-indene-2-carboxamide], the inhibition at 1 µM (1 μM inhibitor) is 1%. For the same compound, under “3 μM inhibitor (column A)”, the inhibition at 3 µM was 21%.

`CC(C(=O)C1C(=O)c2ccc(S(=O)(=O)c3ccc4c(c3)C(=O)C(C(=O)C(C)c3ccc(F)cc3)C4=O)cc2C1=O)c1ccc(F)cc1` (centres unmarked) [Example 243, 2-[2-(4-fluorophenyl)propanoyl]-5-({2-[2-(4-fluorophenyl)propanoyl]-1,3-dioxo-2,3-dihydro-1H-inden-5-yl}sulfonyl)-2,3-dihydro-1H-indene-1,3-dione]: under “1 μM inhibitor”, the inhibition at 1 µM was determined as 19%. The inhibition at 3 µM (3 μM inhibitor (column A)) worked out at 21%.

In the case of `CCC(=O)C1C(=O)c2ccc(S(=O)(=O)c3ccc4c(c3)C(=O)C(C(=O)CC)C4=O)cc2C1=O` (centres unmarked) [Example 325, 5-[(1,3-dioxo-2-propanoyl-2,3-dihydro-1H-inden-5-yl)sulfonyl]-2-propanoyl-2,3-dihydro-1H-indene-1,3-dione], the inhibition at 10 µM came out at 34%.

In the case of `CC(C)(C)OC(=O)N1CCCC[C@H]1C(=O)C1C(=O)c2ccc(-c3ccc4c(c3)C(=O)C(C(=O)[C@@H]3CCCCN3C(=O)OC(C)(C)C)C4=O)cc2C1=O` (stereo partly drawn) [Example 212, tert-butyl (2S)-2-{2′-[(2S)-1-[(tert-butoxy)carbonyl]piperidine-2-carbonyl]-1,1′,3,3′-tetraoxo-1H,1′H,2H,2′H,3H,3′H-[5,5′-biindene]-2-carbonyl}piperidine-1-carboxylate], the inhibition at 5 µM turned out to be 91%, the inhibition at 10 µM came to 88% and the IC50 came to 5.5 µM.

Regarding `COC(=O)[C@@H]1C[C@H]1C(=O)C1C(=O)c2ccc(C(=O)c3ccc4c(c3)C(=O)C(C(=O)[C@@H]3C[C@H]3C(=O)OC)C4=O)cc2C1=O` (stereo partly drawn) [Example 217, methyl (1R,2R)-2-(5-{2-[(1R,2R)-2-(methoxycarbonyl)cyclopropanecarbonyl]-1,3-dioxo-2,3-dihydro-1H-indene-5-carbonyl}-1,3-dioxo-2,3-dihydro-1H-indene-2-carbonyl)cyclopropane-1-carboxylate], the inhibition at 5 µM turned out to be 91%, the inhibition at 10 µM stood at 95% and the IC50 came out at 1.2 µM.

For `CS(=O)(=O)N1CCC(NC(=O)C2C(=O)c3ccc(C(=O)c4ccc5c(c4)C(=O)C(C(=O)NC4CCN(S(C)(=O)=O)CC4)C5=O)cc3C2=O)CC1` (centres unmarked) [Example 365, N-(1-methanesulfonylpiperidin-4-yl)-5-{2-[(1-methanesulfonylpiperidin-4-yl)carbamoyl]-1,3-dioxo-2,3-dihydro-1H-indene-5-carbonyl}-1,3-dioxo-2,3-dihydro-1H-indene-2-carboxamide], the IC50 amounted to 3.39 µM. For the same compound, the inhibition at 1 µM (1 μM inhibitor) is 27%. The inhibition at 3 µM (3 μM inhibitor (column A)) is 63%.

For the compound `COc1ccc(NC(=O)C2C(=O)c3ccc(C(=O)c4ccc5c(c4)C(=O)C(C(=O)Nc4ccc(OC)cc4OC)C5=O)cc3C2=O)c(OC)c1` (centres unmarked) [Example 96, N-(2,4-dimethoxyphenyl)-5-{2-[(2,4-dimethoxyphenyl)carbamoyl]-1,3-dioxo-2,3-dihydro-1H-indene-5-carbonyl}-1,3-dioxo-2,3-dihydro-1H-indene-2-carboxamide], the inhibition at 5 µM turned out to be 36% and the inhibition at 10 µM stood at 70%.

For the compound `CC(C)(C)OC(=O)NCCC(=O)C1C(=O)c2ccc(S(=O)(=O)c3ccc4c(c3)C(=O)C(C(=O)CCNC(=O)OC(C)(C)C)C4=O)cc2C1=O` (centres unmarked) [Example 164, tert-butyl N-[3-(5-{[2-(3-{[(tert-butoxy)carbonyl]amino}propanoyl)-1,3-dioxo-2,3-dihydro-1H-inden-5-yl]sulfonyl}-1,3-dioxo-2,3-dihydro-1H-inden-2-yl)-3-oxopropyl]carbamate], the inhibition at 5 µM was determined as 70%, the inhibition at 10 µM came to 82% and the 50% inhibitory concentration (IC50) amounted to 5 µM.
